For this experiment, the species on record is Homo sapiens. Put plainly: Antitumour activity against human DLBCL patients assessed as response rate co-treatment with rituximab relative to control. The experiment is classed as functional.

The text below walks through data of ChEMBL document CHEMBL4402558, “Designing Chimeric Molecules for Drug Discovery by Leveraging Chemical Biology” (J Med Chem, 2020).

Turning to `Cn1c(CCCC(=O)O)nc2cc(N(CCCl)CCCl)ccc21`, the Activity turned out to be 18%.
